Measured values taken from publication PMC9854762, “Antibiofilm and Anti-Quorum-Sensing Activities of Novel Pyrazole and Pyrazolo[1,5-a]pyrimidine Derivatives as Carbonic Anhydrase I and II Inhibitors: Design, Synthesis, Radiosterilization, and Molecular Docking Studies” (Antibiotics, 2023).
≈ marks a conversion by molar mass, not a printed value. Like-named read-outs stand apart in the source and are kept apart here.

How the values were obtained:
Gram-positive isolates = experiment: Broth microdilution MIC/MBC, summary; assay type: cell-based; details: Gram-positive isolates (E. faecalis, S. aureus, S. pyogenes)
Experimental: (§1) The broth microdilution method was taken as a basis to detect the MICs of pyrazole compounds against tested clinical isolates, according to the Clinical Laboratory and Standards Institute guidelines. The broth cultures were used to prepare the bacterial inoculums, and the suspensions were adjusted to the standard 0.5 McFarland turbidity. Stock solutions of the synthesized pyrazoles were prepared in pure DMSO and further serially diluted with TS broth in the concentration range from 128 µg/mL to 0.0625 µg/mL. A well containing noninoculated TS broth, free of any antimicrobial agents, was also included to ensure the medium sterility, while Erythromycin and Amikacin served as positive controls. Bacterial growth was determined by adding 20 µL of 0.5% TTC (2,3,5-triphenyltetrazolium chloride) aqueous solution. […] All experiments were repeated three times. The bactericidal effect from each concentration of the pyrazole and pyrazolo[1,5-a]pyrimidine derivatives showing growth inhibition was further studied. For this study, a loopful of 5 µL was taken from each no-visible growth tube and streaked onto plates of TS agar.

S. pyogenes DH-3467 [1] = experiment: Broth microdilution MIC/MBC; assay type: cell-based, Streptococcus pyogenes; details: for MIC: Streptococcus pyogenes, DH3467, 24 h, read-out: MIC (Mean ± SEM); for MBC/MIC: value in brackets
Experimental: as §1

E. faecalis DH-5478 [2] = experiment: Broth microdilution MIC/MBC; assay type: cell-based, Enterococcus faecalis; details: for MIC: Enterococcus faecalis, DH5478, 24 h, read-out: MIC (Mean ± SEM); for MBC/MIC: value in brackets
Experimental: as §1

E. faecalis DH-5478 [3] = experiment: Agar well-diffusion assay; assay type: cell-based; details: Enterococcus faecalis
Experimental: (§2) The synthesized compounds were initially screened for their in vitro antibacterial activity against the different Gram-positive and Gram-negative bacteria, tested using the agar well-diffusion assay. The turbidity of the bacterial suspensions was established to the 0.5 McFarland turbidity standard. The activity was performed on TS agar plates. The bacteria were spread on the surface of the agar plates, and 10 mm wells were screwed into the agar plates. The assay was performed under aseptic conditions. An aliquot of 50 µL of each tested compound (10 mM) was added to the wells, and the plates were incubated overnight at 37 °C. Both Erythromycin and Amikacin antibiotic disks were used as positive control, while DMSO solvent was used as a negative control in this study. The diameters of inhibition zones were measured and recorded in mm. A comparative study of the synthesized compounds was determined. The experiment was performed in triplicates.

S. pyogenes DH-3467 [4] = experiment: Agar well-diffusion assay; assay type: cell-based; details: Streptococcus pyogenes
Experimental: as §2

S. aureus DH-432 [5] = experiment: Agar well-diffusion assay; assay type: cell-based; details: Staphylococcus aureus
Experimental: as §2

S. aureus DH-432 [6] = experiment: Broth microdilution MIC/MBC; assay type: cell-based, Staphylococcus aureus; details: for MIC: Staphylococcus aureus, DH432, 24 h, read-out: MIC (Mean ± SEM); for MBC/MIC: value in brackets
Experimental: as §1

A. baumannii DH-243 [7] = experiment: Broth microdilution MIC/MBC; assay type: cell-based, Acinetobacter baumannii; details: for MIC: Acinetobacter baumannii, DH243, 24 h, read-out: MIC (Mean ± SEM); for MBC/MIC: value in brackets
Experimental: as §1

A. baumannii DH-243 [8] = experiment: Agar well-diffusion assay; assay type: cell-based; details: Acinetobacter baumannii, DH243; A. baumannii DH-243; 50 µL of 10 mM per well; read-out: Diameter of Inhibition Zones (AZOI)
Experimental: as §2

E. coli DH-5987 [9] = experiment: Agar well-diffusion assay; assay type: cell-based; details: Escherichia coli, DH5987, 50 µL of 10 mM per well, read-out: Diameter of Inhibition Zones (AZOI)
Experimental: as §2

E. coli DH-5987 [10] = experiment: Broth microdilution MIC/MBC; assay type: cell-based, Escherichia coli; details: E. coli DH-5987; for MBC/MIC: value in brackets; for MIC: Escherichia coli, DH5987, 24 h, read-out: MIC (Mean ± SEM)
Experimental: as §1

P. aeruginosa DH-5698 [11] = experiment: Broth microdilution MIC/MBC; assay type: cell-based, Pseudomonus aeruginosa; details: for MIC: Pseudomonas aeruginosa, DH5698, 24 h, read-out: MIC (Mean ± SEM); for MBC/MIC: value in brackets
Experimental: as §1

P. aeruginosa DH-5698 [12] = experiment: Agar well-diffusion assay; assay type: cell-based, Pseudomonus aeruginosa; details: Pseudomonas aeruginosa, DH5698; P. aeruginosa DH-5698; 50 µL of 10 mM per well; read-out: Diameter of Inhibition Zones (AZOI)
Experimental: as §2

[13] = DH5478, E. faecalis DH-5478, 50 µL of 10 mM per well, read-out: Diameter of Inhibition Zones (AZOI)
[14] = DH3467, S. pyogenes DH-3467, 50 µL of 10 mM per well, read-out: Diameter of Inhibition Zones (AZOI)
[15] = DH432, S. aureus DH-432, 50 µL of 10 mM per well, read-out: Diameter of Inhibition Zones (AZOI)

Row | Compound | MIC (S. pyogenes DH-3467 [1]) [mg/L] | MBC/MIC (S. pyogenes DH-3467 [1]) | MIC (E. faecalis DH-5478 [2]) [mg/L] | MBC/MIC (E. faecalis DH-5478 [2]) | MIC (S. aureus DH-432 [6]) [mg/L] | MBC/MIC (S. aureus DH-432 [6]) | MIC (A. baumannii DH-243 [7]) [mg/L] | MBC/MIC (A. baumannii DH-243 [7]) | melting point [°C] | zone of inhibition at 10000 µM (E. faecalis DH-5478 [3]; [13]) [mm] | zone of inhibition at 10000 µM (A. baumannii DH-243 [8]) [mm] | zone of inhibition at 10000 µM (E. coli DH-5987 [9]) [mm] | zone of inhibition at 10000 µM (S. pyogenes DH-3467 [4]; [14]) [mm] | zone of inhibition at 10000 µM (S. aureus DH-432 [5]; [15]) [mm] | MBC/MIC (E. coli DH-5987 [10]) | MIC (E. coli DH-5987 [10]) [mg/L] | MIC (P. aeruginosa DH-5698 [11]) [mg/L] | MBC/MIC (P. aeruginosa DH-5698 [11]) | zone of inhibition at 10000 µM (P. aeruginosa DH-5698 [12]) [mm] | also measured
1 | CC[C@H]1OC(=O)[C@H](C)[C@@H](O[C@H]2C[C@@](C)(OC)[C@@H](O)[C@H](C)O2)[C@H](C)[C@@H](O[C@@H]2O[C@H](C)C[C@H](N(C)C)[C@H]2O)[C@](C)(O)C[C@@H](C)C(=O)[C@H](C)[C@@H](O)[C@]1(C)O [E, Erythromycin, reference compound] | 64 ± 0.3 (≈ 87.2 µM) | 2 | 32 ± 0.1 (≈ 43.6 µM) | 4 | 8 ± 0.2 (≈ 10.9 µM) | 2 |  |  |  |  |  |  |  |  |  |  |  |  |  | MBC (Gram-positive isolates; read-out: MBC): 16 to 128 mg/L (≈ 21.8 to 174 µM); MIC (Gram-positive isolates; read-out: MIC): 8 to 64 mg/L (≈ 10.9 to 87.2 µM); zone of inhibition at 10000 µM (E. faecalis DH-5478 [3]; DH5478, read-out: Diameter of Inhibition Zones (AZOI)): 11 mm; zone of inhibition at 10000 µM (S. pyogenes DH-3467 [4]; DH3467, read-out: Diameter of Inhibition Zones (AZOI)): 10.5 mm; zone of inhibition at 10000 µM (S. aureus DH-432 [5]; DH432, read-out: Diameter of Inhibition Zones (AZOI)): 12 mm
2 | CCOC(=O)c1ccc(N=Nc2c(N)nn(C(N)=S)c2N)cc1 [Compound 3c, Ethyl 4-((3,5-diamino-1-carbamothioyl-1H-pyrazol-4-yl)diazenyl)benzoate] | 0.75 ± 0.2 (≈ 2.25 µM) | 0.5 | 1 ± 0.3 (≈ 3 µM) | 1 | 0.75 ± 0.2 (≈ 2.25 µM) | 1 | 2 ± 0.2 (≈ 6 µM) | 1 | 280 to 282 | 21.3 | 22.5 | 24.7 | 22.6 | 23.8 | 0.5 | 0.75 ± 0.5 (≈ 2.25 µM) | 1 ± 0.3 (≈ 3 µM) | 1 | 23.2 | 
3 | CCOC(=O)c1ccc(N=Nc2c(N)nn3c(-c4cccs4)cc(-c4ccccc4)nc23)cc1 [Compound 8a, Ethyl-4-((2-amino-5-phenyl-7-(thiophen-2-yl)pyrazolo[1,5-a]pyrimidin-3-yl)diazenyl)benzoate] | 4 ± 0.4 (≈ 8.54 µM) | 1 | 4 ± 0.3 (≈ 8.54 µM) | 1 | 2 ± 0.2 (≈ 4.27 µM) | 1 | 4 ± 0.2 (≈ 8.54 µM) | 2 | 200 to 202 | 20.6 | 19.7 | 23.4 | 21.4 | 22 | 1 | 2 ± 0.2 (≈ 4.27 µM) | 2 ± 0.3 (≈ 4.27 µM) | 1 | 21.6 | 
4 | CCOC(=O)c1ccc(N=Nc2c(N)nn3c2N=C(C)CC3=O)cc1 [Compound 7, ethyl 4-((2-amino-5-methyl-7-oxo-6,7-dihydropyrazolo[1,5-a]pyrimidin-3-yl)diazenyl)benzoate] | 1.5 ± 0.2 (≈ 4.41 µM) | 1 | 2 ± 0.4 (≈ 5.88 µM) | 1 | 1 ± 0.3 (≈ 2.94 µM) | 1 | 2 ± 0.3 (≈ 5.88 µM) | 1 | 296 to 298 | 23 | 24.5 | 25.8 | 22.8 | 25.3 | 0.5 | 1.5 ± 0.2 (≈ 4.41 µM) | 2 ± 0.3 (≈ 5.88 µM) | 0.5 | 24 | 
